For one assay, the target named is T1, IDH2 R140Q (Homo sapiens, UniProt P48735, R140Q).
T1 sequence (P48735 40-452 R140Q): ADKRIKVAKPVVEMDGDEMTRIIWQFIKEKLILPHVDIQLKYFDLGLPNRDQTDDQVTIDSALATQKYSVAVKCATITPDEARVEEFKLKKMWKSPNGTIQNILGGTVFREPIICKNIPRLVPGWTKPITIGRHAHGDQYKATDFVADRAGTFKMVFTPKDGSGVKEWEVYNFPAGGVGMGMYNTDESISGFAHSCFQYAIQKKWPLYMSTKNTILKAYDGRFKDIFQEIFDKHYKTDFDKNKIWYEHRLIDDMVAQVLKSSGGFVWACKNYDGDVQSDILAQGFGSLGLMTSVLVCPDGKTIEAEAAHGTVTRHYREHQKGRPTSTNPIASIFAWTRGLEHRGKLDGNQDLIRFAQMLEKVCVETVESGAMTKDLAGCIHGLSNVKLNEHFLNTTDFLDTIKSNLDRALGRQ
The assay is described as follows: IDH2 R140Q enzymatic assay (NADPH cofactor depletion, diaphorase/resazurin readout). It counts as biochemical. Details: key to Enz R140Q: values indicated as “A” represent an IC50 of less than 50 nM; values indicated as “B” represent an IC50 of between 50 nM and 100 nM; values indicated as “C” represent an IC50 of greater than 100 nM; values indicated as “D” represent that the compound was either inactive or not tested in that particular assay. Conditions: IDH2 R140Q enzyme, 16 hours preincubation, class symbols; for IC50: read-out: Enz R140Q. As for the experimental part:
Compounds are assayed for IDH2 R172K inhibitory activity through a cofactor depletion assay. […] The reaction is terminated by the addition of a second enzyme, diaphorase, and a corresponding substrate, resazurin. Diaphorase reduces resazurin to the highly fluorescent resorufin with the concomitant oxidation of NADPH to NADP, both halting the IDH2 reaction by depleting the available cofactor pool and facilitating quantitation of the amount of cofactor remaining after a specific time period through quantitative production of an easily detected fluorophore.
Specifically, into each of 12 wells of a 384-well plate, 1 μl of 100× compound dilution series is placed, followed by the addition of 40 μl of buffer (50 mM potassium phosphate (K2HPO4), pH 7.5; 150 mM NaCl; 10 mM MgCl2, 10% glycerol, 0.05% bovine serum albumin, 2 mM beta-mercaptoethanol) containing 1.25 μg/ml IDH2 R172K. The test compound is then incubated for 16 hours at room temperature with the enzyme; before starting the IDH2 reaction with the addition of 10 μl of substrate mix containing 50 μM NADPH and 6.3 mM α-KG in the buffer described above. After a further one hour of incubation at room temperature, the reaction is halted and the remaining NADPH measured through conversion of resazurin to resorufin by the addition of 25 μl Stop Mix (36 μg/ml diaphorase enzyme and 60 μM resazurin; in buffer). After one minute of incubation the plate is read on a plate reader at Ex544/Em590.
For determination of the inhibitory potency of compounds against IDH2 R140Q in an assay format similar to the above, a similar procedure is performed, except that the final testing concentration is 0.25 μg/ml IDH2 R140Q protein, 4 μM NADPH and 1.6 mM α-KG.
For determination of the inhibitory potency of compounds against IDH2 R140Q in a high throughput screening format, a similar procedure is performed, except that 0.25 μg/ml IDH2 R140Q protein was utilized in the preincubation step, and the reaction is started with the addition of 4 μM NADPH and 8 μM α-KG.
A general note: Alamar Blue is a resazurin reagent that responds to reducing activity.

Assay [1] concerns U87MG pLVX-IDH2 R140Q-neo cells. The assay is described as follows: U87MG pLVX-IDH2 R140Q-neo cell based assay (2-HG in media by LC-MS). Further details: key to Cell R140Q: values indicated as “A” represent an IC50 of less than 50 nM; values indicated as “B” represent an IC50 of between 50 nM and 100 nM; values indicated as “C” represent an IC50 of greater than 100 nM; values indicated as “D” represent that the compound was either inactive or not tested in that particular assay. Particulars: 2-HG at 48 hours, class symbols; for IC50: Homo sapiens, U-87 MG. As for the experimental part: U87MG pLVX-IDH2 R140Q-neo Cell Based Assay.
U87MG pLVX-IDH2 R140Q-neo cells are grown in T125 flasks in DMEM containing 10% FBS, 1× penicillin/streptomycin and 500 μg/mL G418. They are harvested by trypsin and seeded into 96 well white bottom plates at a density of 5000 cell/well in 100 μl/well in DMEM with 10% FBS. No cells are plated in columns 1 and 12. Cells are incubated overnight at 37° C. in 5% CO2. The next day compounds are made up at 2x concentration and 100 ul are added to each cell well. The final concentration of DMSO is 0.2% and the DMSO control wells are plated in row G. The plates are then placed in the incubator for 48 hours. At 48 hours, 100 ul of media is removed from each well and analyzed by LC-MS for 2-HG concentrations. The cell plate is placed back in the incubator for another 24 hours. At 72 hours post compound addition, 10 mL/plate of Promega Cell Titer Glo reagent is thawed and mixed. The cell plate is removed from the incubator and allowed to equilibrate to room temperature. Then 100 ul of reagent is added to each well of media. The cell plate is then placed on an orbital shaker for 10 minutes and then allowed to sit at room temperature for 20 minutes. The plate is then read for luminescence with an integration time of 500 ms to determine compound effects on growth inhibition.

Turning to `CC(C)CC(=O)Nc1cc(Nc2ccccc2)nc(-c2ccccc2)n1` [Compound 701], the “Enz R140Q” value on IDH2 R140Q is given as “D”. Further, in assay [1], the IC50 was over 100 nM.
`Nc1cc(Nc2cc(C(F)(F)F)ncn2)nc(-c2cccc(C(F)(F)F)n2)n1` [Compound 726]: the IC50 on IDH2 R140Q is over 100 nM. For the same compound, in assay [1], the “Cell R140Q” value is listed as “D”.
As for `CC(C)Nc1cc(Nc2cccc(Cl)n2)nc(-c2cccc(C(F)(F)F)n2)n1` [Compound 710], the IC50 (on IDH2 R140Q; in assay [1]) was under 50 nM in each case.
On to `CC(C)(O)CNc1cc(Nc2ccccn2)nc(-c2cccc(C(F)(F)F)n2)n1` [Compound 707], for which the IC50 (at IDH2 R140Q; in assay [1]) was over 100 nM in each case.
Regarding `CC(C)OC(=O)Nc1cc(Nc2ccccc2)nc(-c2ccccc2)n1` [Compound 703], at IDH2 R140Q, the “Enz R140Q” value is recorded as “D”. Moreover, the IC50 in assay [1] was over 100 nM.
For `O=C(Cc1ccccc1)Nc1nc(Nc2ccccc2)cc(-c2ccccc2)n1` [Compound 734], the “Enz R140Q” value on IDH2 R140Q was “D”. Besides, in assay [1], the IC50 was over 100 nM.
Take `CC(C)C(=O)Nc1cc(-c2ccccc2)nc(Nc2ccccc2)n1` [Compound 736]: the “Enz R140Q” value on IDH2 R140Q is listed as “D”. The compound further displayed an IC50 in assay [1] of over 100 nM.
On to `CC(C)Nc1cc(Nc2ccccc2)nc(-c2cccc(C(F)(F)F)n2)n1` [Compound 708], for which the figures for the IC50 (on IDH2 R140Q; in assay [1]) were under 50 nM and 50 to 100 nM, respectively.
On to `CC(C)Nc1cc(Nc2ccccc2)nc(-c2ccccc2)n1` [Compound 700], for which the results for the IC50 (on IDH2 R140Q; in assay [1]) were 50 to 100 nM and over 100 nM, respectively.
Turning to `CC(C)(O)CNc1cc(Nc2ccnc(C(F)(F)F)c2)nc(-c2cccc(C(F)(F)F)n2)n1` [Compound 709], the IC50 (on IDH2 R140Q; in assay [1]) was over 100 nM in each case.
Turning to `CC(C)Nc1cc(Nc2cc(C(F)(F)F)ccn2)nc(-c2cccc(C(F)(F)F)n2)n1` [Compound 711], the IC50 (on IDH2 R140Q; in assay [1]) was under 50 nM each time.
With `CC(C)C(=O)Nc1cc(Nc2ccccc2)nc(-c2ccccc2)n1` [Compound 702], the IC50 at IDH2 R140Q is under 50 nM; in assay [1], over 100 nM.
For `CC(C)Nc1cc(Nc2cc(C(C)(F)F)ccn2)nc(-c2cccc(C(F)(F)F)n2)n1` [Compound 713], the IC50 (at IDH2 R140Q; in assay [1]) was under 50 nM throughout.
On to `FC(F)(F)c1ccnc(Nc2cc(NCC3CC3)nc(-c3cccc(C(F)(F)F)n3)n2)c1` [Compound 715], for which the IC50 (at IDH2 R140Q; in assay [1]) was under 50 nM each time.
`Nc1cc(Nc2cc(C(F)(F)F)ccn2)nc(-c2cccc(C(F)(F)F)n2)n1` [Compound 722]: at IDH2 R140Q, the IC50 is over 100 nM. Besides, in assay [1], the “Cell R140Q” value is “D”.
For the compound `CC(C)Nc1cc(Nc2ccnc(C(F)(F)F)c2)nc(-c2cccc(C(F)(F)F)n2)n1` [Compound 706], the IC50 (at IDH2 R140Q; in assay [1]) was under 50 nM each time.
`CC(C)Nc1cc(-c2cccc(C(F)(F)F)n2)nc(Nc2ccnc(C(F)(F)F)c2)n1` [Compound 739]: the IC50 at IDH2 R140Q is under 50 nM; in assay [1] it was over 100 nM.
For `Nc1cc(Nc2ccnc(C(F)(F)F)c2)nc(-c2cccc(C(F)(F)F)n2)n1` [Compound 728], the “Enz R140Q” value at IDH2 R140Q is recorded as “D”. Also, the “Cell R140Q” value in assay [1] is recorded as “D”.
Turning to `CC(C)Nc1cc(Nc2cc(C(F)F)ccn2)nc(-c2cccc(C(F)(F)F)n2)n1` [Compound 714], the IC50 (at IDH2 R140Q; in assay [1]) was under 50 nM in each case.
Regarding `CC(C)(CO)Nc1cc(Nc2cc(C(F)(F)F)ncn2)nc(-c2cccc(C(F)(F)F)n2)n1` [Compound 725], the IC50 at IDH2 R140Q is 50 to 100 nM. Also, the “Cell R140Q” value in assay [1] was “D”.
`CC(C)Nc1cc(Nc2cc(Cl)ccn2)nc(-c2cccc(C(F)(F)F)n2)n1` [Compound 705]: the IC50 (at IDH2 R140Q; in assay [1]) was under 50 nM each time.
Consider `CC(C)(C)Nc1cc(Nc2cc(C(F)(F)F)ncn2)nc(-c2cccc(C(F)(F)F)n2)n1` [Compound 723], for which the IC50 on IDH2 R140Q fell in the range of 50 to 100 nM. In assay [1], the “Cell R140Q” value was “D”.
Take `N#CC1(c2ccnc(Nc3cc(NCC4CC4)nc(-c4cccc(C(F)(F)F)n4)n3)c2)CC1` [Compound 719]: the IC50 (at IDH2 R140Q; in assay [1]) was under 50 nM in each case.
With `CC(C)Nc1cc(Nc2cc(C(F)(F)F)ncn2)nc(-c2cccc(C(F)(F)F)n2)n1` [Compound 717], the IC50 (on IDH2 R140Q; in assay [1]) was under 50 nM in each case.
Take `CC(C)Nc1nc(Nc2ccnc(C(F)(F)F)c2)cc(-c2cccc(C(F)(F)F)n2)n1` [Compound 738]: the IC50 on IDH2 R140Q was under 50 nM; in assay [1], 50 to 100 nM.
In the case of `CC(C)Nc1cc(Nc2cc(C#N)ccn2)nc(-c2cccc(C(F)(F)F)n2)n1` [Compound 712], the IC50 (on IDH2 R140Q; in assay [1]) was under 50 nM in each case.
As for `CC(C)Nc1cc(Nc2ccccn2)nc(-c2cccc(C(F)(F)F)n2)n1` [Compound 704], the IC50 (on IDH2 R140Q; in assay [1]) was under 50 nM each time.
Consider `CC(C)(C)Nc1cc(Nc2cc(C3(C#N)CC3)ccn2)nc(-c2cccc(C(F)(F)F)n2)n1` [Compound 721], for which the IC50 was 50 to 100 nM at IDH2 R140Q and under 50 nM in assay [1].
As to `CC(C)Nc1nc(Nc2ccccc2)cc(-c2ccccc2)n1` [Compound 729], the “Enz R140Q” value on IDH2 R140Q was “D”. Besides, in assay [1], the “Cell R140Q” value is on record as “D”.
As for `CC(C)CC(=O)Nc1cc(-c2ccccc2)nc(Nc2ccccc2)n1` [Compound 735], the IC50 (on IDH2 R140Q; in assay [1]) was over 100 nM in each case.
Take `CC(C)(C)Nc1cc(Nc2cc(C(F)(F)F)ccn2)nc(-c2cccc(C(F)(F)F)n2)n1` [Compound 716]: the IC50 is 50 to 100 nM on IDH2 R140Q and under 50 nM in assay [1].
As to `CC(C)Nc1cc(-c2ccccc2)nc(Nc2ccccc2)n1` [Compound 730], the IC50 (at IDH2 R140Q; in assay [1]) was 50 to 100 nM each time.
For the compound `CC(C)Nc1cc(Nc2cc(C3(C#N)CC3)ccn2)nc(-c2cccc(C(F)(F)F)n2)n1` [Compound 720], the IC50 (at IDH2 R140Q; in assay [1]) was under 50 nM throughout.
Take `COc1ccc(CNc2cc(Nc3cc(C(F)(F)F)ncn3)nc(-c3cccc(C(F)(F)F)n3)n2)cc1` [Compound 724]: at IDH2 R140Q, the IC50 was under 50 nM. Moreover, the “Cell R140Q” value in assay [1] is “D”.
Regarding `COc1ccc(CNc2cc(Nc3ccnc(C(F)(F)F)c3)nc(-c3cccc(C(F)(F)F)n3)n2)cc1` [Compound 727], on IDH2 R140Q, the IC50 lay within 50 to 100 nM. The “Cell R140Q” value in assay [1] is given as “D”.
For the compound `CC(C)(O)CNc1cc(Nc2cc(C(F)(F)F)ccn2)nc(-c2cccc(C(F)(F)F)n2)n1` [Compound 718], the IC50 (on IDH2 R140Q; in assay [1]) was under 50 nM in each case.
As for `CC(C)OC(=O)Nc1cc(-c2ccccc2)nc(Nc2ccccc2)n1` [Compound 737], the “Enz R140Q” value at IDH2 R140Q is on record as “D”. For the same compound, the “Cell R140Q” value in assay [1] is “D”.

The values are drawn from patent US10376510B2, “2,4- or 4,6-diaminopyrimidine compounds as IDH2 mutants inhibitors for the treatment of cancer” (AGIOS PHARMACEUTICALS, INC., priority 2013, dated 2019).
